Several values for one entry are separate records, joined by “and”; a condition that tells them apart may be missing. Identical values can stand only once. Counter-ions that a name gives are not always drawn. Like-named read-outs stand apart in the source and are kept apart here.
Legend:
[1] = test system: weakly beta-hemolytic spirochetes; conditions: WBHS
[2] = Acute toxicity in the rat; type: in vivo
Experimental: The acute toxicity in the rat of the compound of formula I in hydrochloride salt form was determined with single doses of 1000 mg/kg and 2000 mg/kg orally administered to 5 male and 5 female rats per dose group. Deaths occurred within 1-8 days. The LD50 -value obtained is >1000 mg/kg p.o.

[3] = test system: M. hyopneumoniae; assay: MIC against M. hyopneumoniae strains isolated from challenge material; type: cell-based, Mycoplasma hyopneumoniae; conditions: Mesomycoplasma hyopneumoniae
[4] = test system: Lawsonia intracellularis; assay: Challenge study: porcine proliferative enteropathy; type: in vivo, pigs
[5] = test system: Lawsonia intracellularis; assay: Lawsonia intracellularis infection of IEC-18 rat enterocyte cell cultures; type: cell-based; conditions: for Percentage ratio of Lawsonia intracellularis infection: listed as Valnemulin (ch); for percent of cells infected with Lawsonia intracellularis at 2 µg/mL: IEC-18, 2 μg/ml; for percent of cells infected with Lawsonia intracellularis at 2 µg/mL / percent of cells infected with Lawsonia intracellularis at 8 µg/mL: first strain column, read-out: Percentage ratio of Lawsonia intracellularis infection; for percent of cells infected with Lawsonia intracellularis at 8 µg/mL: IEC-18, 8 μg/ml
Experimental: The method of Lawson, G. H. K. et al., J. Clin. Microbiol. 31 (1993) 1136-1142 is generally followed, with some modifications (standard Kirby-Bauer disc methods are not applicable to intracellular bacteria):
Cells: Monolayers of IEC-18 rat enterocyte cell cultures (ATCC CRL 1589) are established and maintained by standard cell culture methods. One day old monolayers of dividing cells (approx. 30% confluence) are prepared for infection on day 0, on glass coverslips in small culture vials (Tracs).
Inocula: Batches of three strains of Lawsonia intracellularis are used as inocula. These are derived from pigs afflicted with proliferative enteropathy, of the proliferative haemorrhagic enteropathy (PHE) and porcine intestinal adenomatosis (PIA) forms prepared from pig intestines, and passaged in cell cultures as described in the above Lawson reference. The two PHE strains were partly tested for pathogenicity in pigs as described in McOrist, S. et al., Infect. Immun. 61 (1993) 4286-4292. Inocula batches are collected after several cell passages, and stored frozen at -70° C. in 1 ml vials. Preliminary trials established appropriate dilutions of thawed vials that would result in readily recognizeable cell infections in 5 day trials.
Antibiotics are prepared as 100× stock solutions for each use. Activity of each batch of antibiotic is confirmed by standard Kirby-Bauer disc methods with a laboratory strain of Escherichia coli.
Infections: On day 0, a vial of each strain is thawed, diluted 1/8 to 1/32 with culture medium, for use in four groups 1 to 4.
For group 4 (continuous treatment) this inoculum is initially incubated for one hour at 37° C. in culture medium containing the antibiotic at various concentrations prior to addition to cells.
For group 3 (extracellular activity) this inoculum is prepared in culture medium, containing the antibiotic at various concentrations added immediately prior to time of addition to cells.
For groups 1 (control) and 2 (intracellular activity) inocula are prepared in culture medium free of antibiotics and added to cells. Culture vials (Tracs) with cells with added inocula (+/- antibiotics) in a total of 0.5 ml of medium are placed in steel jars, evacuated to 40% atmosphere (8% O2), left for 2 min, replenished with hydrogen and finally 10% CO2. Tracs are then removed from these jars and placed into an incubator set to provide a humidified atmosphere of 8% O2, 8.8% CO2 and the remainder nitrogen, at 37° C.
On days 1 and 2 all vials are removed and refed with fresh medium, either containing antibiotics, groups 2 and 4, or not, groups 1 and 3, and replaced into the incubator. On day 5, all coverslips are removed and stained for Lawsonia intracellularis by indirect immunoperoxidase stain incorporating a specific monoclonal antibody. The number of cells on each coverslip, heavily infected with Lawsonia intracellularis (>30 per cell, heavily infected cell=HIC) is used as the main measure of infection. The number of foci of HIC and general cell observations are also noted. HIC in control (group 1), intracellularly active antibiotic assay (group 2), extracelluiarly active antibiotic assay (group 3) and continuous treatment assay (group 4) are compared in triplicate assays, for up to 3 strains each. Some assay are repeated for various inocula strengths. Percentage ratios are calculated after derivation of the mean HIC of the controls relevant to the test group. Mean control HIC is the total number of HIC in control Tracs divided by the number of infected control Tracs. The percentage ratio of test Tracs is then calculated by dividing their HIC value by the mean control HIC, multiplied by 100 to give a percentage.

[6] = test system: S. hyodysenteriae; conditions: cited from earlier work
[7] = Lawsonia intracellularis, group 2 (intracellular activity)
[8] = Lawsonia intracellularis, group 3 (extracellular activity)

C=C[C@]1(C)C[C@@H](OC(=O)CSC(C)(C)CNC(=O)[C@H](N)C(C)C)[C@]2(C)[C@H](C)CC[C@]3(CCC(=O)[C@H]32)[C@@H](C)[C@@H]1O [valnemulin hydrochloride, 14-O-[1-[(R)-2-amino-3-methylbutyrylamino]-2-methylpropan-2-ylthioacetyl]mutilin]
strains with MIC at the lowest value [1]: 9 out of 10 strains
tolerability ([2]; in vivo): well tolerated
LD50 ([2]; in vivo, po, single dose): > 1000 mg/kg
time of deaths ([2]; oral 1000 and 2000 mg/kg): 1 to 8 days
MIC ([3]; strain from material used in Trial 3): 0.0078 µg/mL
MIC ([3]; strain in material used in Trials 1 & 2): 0.016 µg/mL
prevention or treatment of disease in words ([4]; low actual doses): prevented or treated the disease in a large proportion of challenged pigs
pigs with no visible lesions of proliferative enteropathy ([4]; prevention group, 25/75 ppm from two days before challenge): 3 of 7
pigs with no visible lesions of proliferative enteropathy ([4]; treatment group, 25/75 ppm from seven days after challenge): 5 of 7
Percentage ratio of Lawsonia intracellularis infection ([5]; 4 μg/ml, group 2 (intracellular activity)): 1.7%
Percentage ratio of Lawsonia intracellularis infection ([5]; 4 μg/ml, group 3 (extracellular activity)): 0.83% and 1.7%
Percentage ratio of Lawsonia intracellularis infection ([5]; 4 μg/ml, group 4 (continuous treatment)): 0.8% and 2.5%
Percentage ratio of Lawsonia intracellularis infection ([5]; 8 μg/ml, group 2 (intracellular activity)): 0.86%
Percentage ratio of Lawsonia intracellularis infection ([5]; 8 μg/ml, group 3 (extracellular activity)): 0.2% and 1.4%
Percentage ratio of Lawsonia intracellularis infection ([5]; 8 μg/ml, group 4 (continuous treatment)): 0.5% and 1.4% and 0.2%
percent of cells infected with Lawsonia intracellularis at 2 µg/mL [5, 7]: 0%
percent of cells infected with Lawsonia intracellularis at 2 µg/mL [5, 8]: 0%
percent of cells infected with Lawsonia intracellularis at 8 µg/mL [5, 7]: 0%
percent of cells infected with Lawsonia intracellularis at 8 µg/mL [5, 8]: 0%
percent of cells infected with Lawsonia intracellularis at 8 µg/mL ([5]; Lawsonia intracellularis, group 4 (continuous treatment)): 0%
MIC ([5]; Lawsonia intracellularis, read-out: minimum concentration to cause significant inhibition of growth (<1% growth)): < 2 µg/mL

C=C[C@]1(C)C[C@@H](OC(=O)CSCCN(CC)CC)[C@]2(C)[C@H](C)CC[C@]3(CCC(=O)[C@H]32)[C@@H](C)[C@@H]1O [tiamulin hydrogen fumarate]
elimination of S. hyodysenteriae ([6]; tiamulin 35 and 40 ppm, Taylor 1980): eliminate S. hyodysenteriae from faeces but not prevent the recovery from mucosal scrapings
treatment of swine dysentery ([6]; tiamulin 100 ppm, less severely affected animals, Taylor 1982): successfully used under experimental conditions

Reference: patent US6130250A, “Veterinary use of a pleuromutilin derivative” (priority 1996, dated 2000)
